Measurements reported in US8247211B2, “Glycopeptide antibiotics” (American Cyanamid Company, priority 2001, dated 2012).
Numbered stars: 1 amine (or outer) side, 2 acyl side, 3 side chain; on linkers, the order of the positions; unused ones are H or OH. Square brackets hold non-standard residues; d marks the D form. Peptide text beside a SMILES is read from it. ξ: configuration not given here. X1 = N=C1NCC(C(O)C(N[*:1])C(=O)[*:2])N1C1OC(CO)C(O)C(O)C1O; ξEnduracididine(βξ-OH,4'ξ) = N=C1NCC(C(O)C(N)C(=O)O)N1; Tyr(3,5-Br2) = N[CH](Cc1cc(Br)c(O)c(Br)c1)C(=O)O; ξPhe(βξ-Me) = CC(c1ccccc1)C(N)C(=O)O

Key:
Assay in all cases: In vitro antibacterial evaluation: minimum inhibitory concentration (MIC), broth dilution method
Type in all cases: cell-based
Escherichia coli [1] = conditions: broth dilution, 18 hours at 35° C.
Staphylococcus sp. = conditions: 18 hours at 35° C.
In short: (§1)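 MIC read as lowest drug level preventing visible growth. Organisms at 5×10^5 CFU/mL were exposed to a 64-0.06 μg/mL dilution series in Muller-Hinton II […] following NCCLS broth dilution standard M7-A2.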

Enterococcus sp. = conditions: 18 hours at 35° C.
In short: as §1

Escherichia coli [2] = conditions: 18 hours at 35° C.
In short: as §1

Streptococcus sp. = conditions: 18 hours at 35° C.
In short: as §1

CC(c1ccccc1)C1NC(=O)CNC(=O)C(CO)NC(=O)C(C(O)C2CNC(=N)N2C2OC(CO)C(O)C(O)C2O)NC(=O)C(C(O)C2CNC(=N)N2)NC(=O)C(Cc2cc(Br)c(O)c(Br)c2)NC1=O (stereo not drawn) [Example 3, Cyclo[glycyl-β-methylphenylalanyl-3,5-dibromotyrosyl-3-(2-iminoimidazolidin-4-yl)seryl-3-(3-hexopyranosyl-2-iminoimidazolidin-4-yl)serylseryl]] (cyclo(G[ξPhe(βξ-Me)][Tyr(3,5-Br2)][ξEnduracididine(βξ-OH,4'ξ)][X1]S); configuration not given here)
64 µg/mL: MIC Escherichia coli (GC 4560) (Escherichia coli [1])

CC(c1ccccc1)C1NC(=O)CNC(=O)C(CO)NC(=O)C(C(O)C2CNC(=N)N2C2OC(CO)C(O)C(O)C2O)NC(=O)C(C(O)C2CNC(=N)N2)NC(=O)C(Cc2ccc3oc(-c4ccccc4OC4OC(CO)C(O)C(O)C4O)nc3c2)NC1=O (stereo not shown) [Example 36]
64 µg/mL: MIC Coagulase Negative Staphylococcus (GC 4547) (Staphylococcus sp.; broth dilution) | MIC Coagulase Negative Staphylococcus (GC 4549) (Staphylococcus sp.; broth dilution) | MIC Coagulase Negative Staphylococcus (GC 6257) (Staphylococcus sp.; broth dilution) | MIC Staphylococcus haemolyticus (GC 4546) (Staphylococcus sp.; broth dilution) | MIC Escherichia coli (GC 4560) (Escherichia coli [1])

γ-O-[(Heptylamino)carbonyl]-cyclo[glycyl-β-methylphenylalanyl-O-(4-O-hexopyranosylhexopyranosyl)tyrosyl-3-(2-iminoimidazolidin-4-yl)seryl-3-(3-hexopyranosyl-2-iminoimidazolidin-4-yl)serylseryl] [Example 253b]
64 µg/mL: MIC Escherichia coli (ATCC 25922) (Escherichia coli [2]; Escherichia coli (ATCC 25922)) | MIC Escherichia coli (GC 4559) (Escherichia coli [2]; Escherichia coli (GC 4559))
4 µg/mL: MIC Enterococcus faecium (GC 4557) (Enterococcus sp.; Enterococcus faecium (GC 4557)) | MIC Enterococcus faecium (GC 4557) (Enterococcus sp.; broth dilution, strain GC 4557) | MIC Coagulase Negative Staphylococcus (GC 4547) (Staphylococcus sp.; Coagulase Negative Staphylococcus (GC 4547)) | MIC Coagulase Negative Staphylococcus (GC 4551) (Staphylococcus sp.; Coagulase Negative Staphylococcus (GC 4551)) | MIC Staphylococcus aureus (ATCC 29213) (Staphylococcus sp.; Staphylococcus aureus (ATCC 29213)) | MIC Staphylococcus aureus (GC 1131) (Staphylococcus sp.; Staphylococcus aureus (GC 1131)) | MIC Staphylococcus aureus (GC 4542) (Staphylococcus sp.; Staphylococcus aureus (GC 4542)) | MIC Staphylococcus aureus (GC 4544) (Staphylococcus sp.; Staphylococcus aureus (GC 4544)) | MIC Staphylococcus aureus (ATCC 29213) (Staphylococcus sp.; broth dilution, strain ATCC 29213) | MIC Staphylococcus aureus (GC 1131) (Staphylococcus sp.; broth dilution, strain GC 1131) | MIC Staphylococcus aureus (GC 4542) (Staphylococcus sp.; broth dilution, strain GC 4542) | MIC Staphylococcus aureus (GC 4544) (Staphylococcus sp.; broth dilution, strain GC 4544) | MIC Coagulase Negative Staphylococcus (GC 4547) (Staphylococcus sp.; broth dilution, strain GC 4547) | MIC Coagulase Negative Staphylococcus (GC 4551) (Staphylococcus sp.; broth dilution, strain GC 4551)
1 µg/mL: MIC Streptococcus agalactiae (GC 4564) (Streptococcus sp.; Streptococcus agalactiae (GC 4564)) | MIC Streptococcus pyogenes (GC 4563) (Streptococcus sp.; Streptococcus pyogenes (GC 4563)) | MIC Streptococcus pyogenes (GC 4563) (Streptococcus sp.; broth dilution, strain GC 4563) | MIC Streptococcus agalactiae (GC 4564) (Streptococcus sp.; broth dilution, strain GC 4564)
0.25 µg/mL: MIC Streptococcus pneumoniae (ATCC 6301) (Streptococcus sp.; Streptococcus pneumoniae (ATCC 6301)) | MIC Streptococcus pneumoniae (GC 4565) (Streptococcus sp.; Streptococcus pneumoniae (GC 4565)) | MIC Streptococcus pneumoniae (ATCC 6301) (Streptococcus sp.; broth dilution, strain ATCC 6301) | MIC Streptococcus pneumoniae (GC 4565) (Streptococcus sp.; broth dilution, strain GC 4565)
2 µg/mL: MIC Escherichia coli (GC 4560) (Escherichia coli [2]; Escherichia coli (GC 4560)) | MIC Coagulase Negative Staphylococcus (GC 4548) (Staphylococcus sp.; Coagulase Negative Staphylococcus (GC 4548)) | MIC Coagulase Negative Staphylococcus (GC 4549) (Staphylococcus sp.; Coagulase Negative Staphylococcus (GC 4549)) | MIC Coagulase Negative Staphylococcus (GC 6257) (Staphylococcus sp.; Coagulase Negative Staphylococcus (GC 6257)) | MIC Staphylococcus aureus (GC 3051) (Staphylococcus sp.; Staphylococcus aureus (GC 3051)) | MIC Staphylococcus aureus (GC 4541) (Staphylococcus sp.; Staphylococcus aureus (GC 4541)) | MIC Staphylococcus aureus (GC 4545) (Staphylococcus sp.; Staphylococcus aureus (GC 4545)) | MIC Staphylococcus aureus-SMITH (GC 4543) (Staphylococcus sp.; Staphylococcus aureus-SMITH (GC 4543)) | MIC Staphylococcus haemolyticus (GC 4546) (Staphylococcus sp.; Staphylococcus haemolyticus (GC 4546)) | MIC Staphylococcus aureus (GC 3051) (Staphylococcus sp.; broth dilution, strain GC 3051) | MIC Staphylococcus aureus (GC 4541) (Staphylococcus sp.; broth dilution, strain GC 4541) | MIC Staphylococcus aureus-SMITH (GC 4543) (Staphylococcus sp.; broth dilution, strain GC 4543) | MIC Staphylococcus aureus (GC 4545) (Staphylococcus sp.; broth dilution, strain GC 4545) | MIC Staphylococcus haemolyticus (GC 4546) (Staphylococcus sp.; broth dilution, strain GC 4546) | MIC Coagulase Negative Staphylococcus (GC 4548) (Staphylococcus sp.; broth dilution, strain GC 4548) | MIC Coagulase Negative Staphylococcus (GC 4549) (Staphylococcus sp.; broth dilution, strain GC 4549) | MIC Coagulase Negative Staphylococcus (GC 6257) (Staphylococcus sp.; broth dilution, strain GC 6257)
16 µg/mL: MIC Enterococcus faecalis (GC 3059) (Enterococcus sp.; Enterococcus faecalis (GC 3059)) | MIC Enterococcus faecalis (GC 3059) (Enterococcus sp.; broth dilution, strain GC 3059)
<0.06 µg/mL: MIC Streptococcus pneumoniae (GC 1894) (Streptococcus sp.; Streptococcus pneumoniae (GC 1894)) | MIC Streptococcus pneumoniae (GC 1894) (Streptococcus sp.; broth dilution, strain GC 1894)
8 µg/mL: MIC Enterococcus avium (GC 4558) (Enterococcus sp.; Enterococcus avium (GC 4558)) | MIC Enterococcus faecalis (ATCC 29212) (Enterococcus sp.; Enterococcus faecalis (ATCC 29212)) | MIC Enterococcus faecalis (GC 2242) (Enterococcus sp.; Enterococcus faecalis (GC 2242)) | MIC Enterococcus faecalis (GC 2691) (Enterococcus sp.; Enterococcus faecalis (GC 2691)) | MIC Enterococcus faecalis (GC 4552) (Enterococcus sp.; Enterococcus faecalis (GC 4552)) | MIC Enterococcus faecalis (GC 4553) (Enterococcus sp.; Enterococcus faecalis (GC 4553)) | MIC Enterococcus faecalis (GC 4554) (Enterococcus sp.; Enterococcus faecalis (GC 4554)) | MIC Enterococcus faecalis (GC 6189) (Enterococcus sp.; Enterococcus faecalis (GC 6189)) | MIC Enterococcus faecium (GC 2243) (Enterococcus sp.; Enterococcus faecium (GC 2243)) | MIC Enterococcus faecium (GC 4556) (Enterococcus sp.; Enterococcus faecium (GC 4556)) | MIC Enterococcus faecalis (ATCC 29212) (Enterococcus sp.; broth dilution, strain ATCC 29212) | MIC Enterococcus faecalis (GC 2242) (Enterococcus sp.; broth dilution, strain GC 2242) | MIC Enterococcus faecium (GC 2243) (Enterococcus sp.; broth dilution, strain GC 2243) | MIC Enterococcus faecalis (GC 2691) (Enterococcus sp.; broth dilution, strain GC 2691) | MIC Enterococcus faecalis (GC 4552) (Enterococcus sp.; broth dilution, strain GC 4552) | MIC Enterococcus faecalis (GC 4553) (Enterococcus sp.; broth dilution, strain GC 4553) | MIC Enterococcus faecalis (GC 4554) (Enterococcus sp.; broth dilution, strain GC 4554) | MIC Enterococcus faecium (GC 4556) (Enterococcus sp.; broth dilution, strain GC 4556) | MIC Enterococcus avium (GC 4558) (Enterococcus sp.; broth dilution, strain GC 4558) | MIC Enterococcus faecalis (GC 6189) (Enterococcus sp.; broth dilution, strain GC 6189) | MIC Staphylococcus aureus (GC 3053) (Staphylococcus sp.; Staphylococcus aureus (GC 3053)) | MIC Staphylococcus aureus (GC 3053) (Staphylococcus sp.; broth dilution, strain GC 3053)
